Test results taken from patent publication US20220119446A1, “BIOMARKERS AND TREATMENT OF NEURONAL INJURY AND NEURODEGENERATION” (Board of Supervisons of Louisiana State University and …, priority 2018, published 2022).
Entries after “also recorded” stand apart in the source; their conditions may differ.

Test system: Wnt5a
Experiment: Microarray of Wnt5a expression in 15-LOX-1 deficient ARPE-19 cells under uncompensated oxidative stress (UOS)
Assay type: cell-based, human
Conditions: UOS=600 μM H2O2 plus 10 ng/ml TNFα, 6 hours, UOS alone gives 2-fold increase
Method: Primary human RPE cultures can be from human eyecups, provided by the National Disease Research Interchange (NDRI), as described previously (Calandria et al. 2012). hRPE cells can be grown and maintained in high-glucose MEM (Life Technologies Corporation, Carlsbad, Calif.) supplemented with 10% FBS (Tissue Culture Biologicals, Inc., Long Beach, Calif.), 5% NCS, non-essential amino acids, Penicillin-Streptomycin (100 U/mL), human fibroblast growth factor (FGF) 10 ng/mL and incubated at 37° C. with a constant supply of 5% CO2. ARPE-19 cells, can be plated and grown in DMEM/F-12 containing 10% FBS and 1× penicillin/streptomycin at 37° C., 5% CO2, 99% relative humidity for 24 h. Silenced 15-LOX-1 cells, described in detail elsewhere (Calandria et al. 2009), are derived from ARPE-19 by stably silencing 15-LOX-1. 15-LOX-1 deficient cells can be maintained in the same medium as ARPE-19 with the addition of 500 μg/mL Geneticin (Life Technologies Corporation, Carlsbad, Calif.). […] Transfection efficiency can be assessed using an expression plasmid-carrying GFP ORF or by including a negative control siRNA conjugated with Alexa Fluor® 488 or 546 (QIAGEN, Hilden, Germany). siRNA efficiency can be assessed using SYBR green-based real-time PCR using the primers of Table 2 and the percentage of silencing achieved (FIG. 7). […]

Question: How did the Wnt5a expression turn out when `CC/C=C\C[C@H](O)\C=C/C=C/C=C/[C@H](O)C/C=C\C/C=C\CCC(=O)O` [NPD1, 10R,17S-dihydroxy-docosa-4Z,7Z,11E,13E,15Z,19Z-hexaenoic acid] was run?
Answer: Its Wnt5a expression is “brought down to below controls; also recorded: reversed”.
